Values quoted from earlier work in patent US5047247A, “Dispersible tablets of dihydroergotoxine methanesulfonate and of acid addition salts thereof” (LEK, priority 1988, dated 1991).

| Substance | solubility in water, in words |
| --- | --- |
| dihydroergotoxine | poorly soluble in water |
| dihydroergotoxine methanesulphonate | poorly soluble in water |
